19 compounds from patent publication US20180057507A1, “INHIBITORS OF DUAL LEUCINE ZIPPER (DLK) KINASE FOR THE TREATMENT OF DISEASE” (Board of Regents, The University of Texas System, priority 2016, published 2018) can be followed below.

Assay [1] concerns the target T1, human DLK (Homo sapiens, UniProt Q12852).
T1 sequence (Q12852 1-859): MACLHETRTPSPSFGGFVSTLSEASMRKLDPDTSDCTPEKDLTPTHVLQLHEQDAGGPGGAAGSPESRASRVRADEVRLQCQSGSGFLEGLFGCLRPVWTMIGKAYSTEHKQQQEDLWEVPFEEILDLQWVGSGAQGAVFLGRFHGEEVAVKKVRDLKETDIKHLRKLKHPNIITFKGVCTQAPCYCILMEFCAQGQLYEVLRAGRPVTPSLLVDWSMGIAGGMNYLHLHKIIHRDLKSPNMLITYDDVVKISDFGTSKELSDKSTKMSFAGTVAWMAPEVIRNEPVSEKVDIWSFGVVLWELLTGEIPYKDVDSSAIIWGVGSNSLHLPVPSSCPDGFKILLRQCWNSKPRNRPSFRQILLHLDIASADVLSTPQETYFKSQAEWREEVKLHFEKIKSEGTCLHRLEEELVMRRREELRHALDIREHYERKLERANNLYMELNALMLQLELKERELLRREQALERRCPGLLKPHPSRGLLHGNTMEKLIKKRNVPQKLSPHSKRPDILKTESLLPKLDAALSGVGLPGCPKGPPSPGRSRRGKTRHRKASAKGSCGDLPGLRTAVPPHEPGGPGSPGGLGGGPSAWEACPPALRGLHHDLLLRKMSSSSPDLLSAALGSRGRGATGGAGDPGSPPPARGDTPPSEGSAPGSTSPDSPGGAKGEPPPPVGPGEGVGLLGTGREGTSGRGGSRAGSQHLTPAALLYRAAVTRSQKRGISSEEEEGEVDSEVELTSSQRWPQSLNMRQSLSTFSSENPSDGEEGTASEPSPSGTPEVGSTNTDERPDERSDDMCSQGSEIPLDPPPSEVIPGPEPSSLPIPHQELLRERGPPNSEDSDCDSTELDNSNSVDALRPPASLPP
Briefly: DLK Kd Determinations (KINOMEscan KdELECT, DiscoveRx). Also on record: full length of human DLK (amino acids 1-859); host or cells: transiently transfected HEK293 cells; unpurified extract. Particulars: fusion protein of full length human DLK (amino acids 1-859) and NFkB DNA binding domain; qPCR readout; duplicate. A digest of the protocol:
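Competition binding of full-length human DLK (aa 1-859)-NFkB DBD fusion, DNA-tagged, from HEK293 extracts against an immobilized ligand; 1 h at room temperature, 0.9% DMSO. Bead-bound kinase was quantified by qPCR. Kd came from an 11-point 3-fold series (top 30,000 nM), in duplicate, with Hill slope fixed at −1.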
In general terms: Real-time PCR tracks product formation cycle by cycle.

Assay [2] addresses T1, human DLK. The assay is described as follows: Phospho-cJun Cellular Assay. It counts as cell-based. Particulars: HEK293 cells stably transfected with Dox-inducible human DLK; p-cJun (Ser63); 5 h compound incubation. On the set-up: expressed in transfected cells. A digest of the protocol:
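HEK293 cells with doxycycline-induced human DLK (induced 20 h; uninduced cells as negative control) treated with compound for 5 h at 37 °C. Phospho-cJun (Ser63) measured in lysates with detection-antibody kit; IC50 from variable-slope dose-response fit.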

pIC50, pKd: −log10 of the molar value.

A word on the pKd: it is −log10 of the Kd, conventionally taken in molar units. A word on the pIC50: it is −log10 of the IC50, conventionally taken in molar units. A high value points to a small IC50.

For `Nc1ncc(-c2cn(C3CC4(CC(N5CCOCC5)C4)C3)c(C3CC3)n2)cc1C(F)(F)F` (centres unmarked) [Example 40, 5-(2-cyclopropyl-1-(6-morpholinospiro[3.3]heptan-2-yl)-1H-imidazol-4-yl)-3-(trifluoromethyl)pyridin-2-amine], the negative logarithm of the Kd (pKd) at human DLK [1] was 7.38. Further, on human DLK [2], the negative-log IC50 (pIC50) is 6.23.

`Nc1ncc(-c2cn(C3CC4(CC(N5CCOCC5)C4)C3)c(C3CC3)n2)cc1OC(F)(F)F` (centres unmarked) [Example 41, 5-(2-cyclopropyl-1-(6-morpholinospiro[3.3]heptan-2-yl)-1H-imidazol-4-yl)-3-(trifluoromethoxy)pyridin-2-amine] had a pKd at human DLK [1] of 7.42. Also, the negative logarithm of the IC50 (pIC50) at human DLK [2] is 6.32.

Consider `CC(C)c1nc(-c2cnc(N)c(C(F)(F)F)c2)cn1[C@H]1C[C@H](N2CCOCC2)C1` [Example 42, 5-(2-isopropyl-1-((1r,3r)-3-morpholinocyclobutyl)-1H-imidazol-4-yl)-3-(trifluoromethyl)pyridin-2-amine], for which the pKd at human DLK [1] was 6.74. Moreover, the negative logarithm of the IC50 (pIC50) against human DLK [2] is 5.65.

At human DLK [1], `CC(C)c1nc(-c2cnc(N)c(OC(F)(F)F)c2)cn1[C@H]1C[C@H](N2CCOCC2)C1` [Example 43, 5-(2-isopropyl-1-((1r,3r)-3-morpholinocyclobutyl)-1H-imidazol-4-yl)-3-(trifluoromethoxy)pyridin-2-amine] showed a pKd of 6.92. The pIC50 against human DLK [2] is 6.09.

For the compound `CC(C)c1nc(-c2cnc(N)c(C(F)(F)F)c2)cn1[C@H]1C[C@@H](N2CCCOCC2)C1` [Example 45, 5-(1-((1s,3s)-3-(1,4-oxazepan-4-yl)cyclobutyl)-2-isopropyl-1H-imidazol-4-yl)-3-(trifluoromethyl)pyridin-2-amine], the negative-log Kd (pKd) on human DLK [1] was 6.47. On human DLK [2], this compound gave a negative-log IC50 (pIC50) of 5.21.

On human DLK [1], `Nc1ncc(-c2cn([C@H]3[C@@H]4CNC[C@@H]43)c(C3CC3)n2)cc1OC(F)(F)F` [Example 53, 5-(1-((1R,5S,6s)-3-azabicyclo[3.1.0]hexan-6-yl)-2-cyclopropyl-1H-imidazol-4-yl)-3-(trifluoromethoxy)pyridin-2-amine] had a negative-log Kd (pKd) of 7.24. The pIC50 against human DLK [2] is 6.10.

As for `Nc1ncc(-c2cn([C@H]3[C@@H]4CN(C5COC5)C[C@@H]43)c(C3CC3)n2)cc1OC(F)(F)F` [Example 65, 5-(2-cyclopropyl-1-((1R,5S,6s)-3-(oxetan-3-yl)-3-azabicyclo[3.1.0]hexan-6-yl)-1H-imidazol-4-yl)-3-(trifluoromethoxy)pyridin-2-amine], the pKd on human DLK [1] was 7.49. Further, the pIC50 on human DLK [2] is 5.98.

The compound `Nc1ncc(-c2cn([C@H]3[C@@H]4CN(C5CCOCC5)C[C@@H]43)c(C3CC3)n2)cc1OC(F)(F)F` [Example 66, 5-(2-cyclopropyl-1-((1R,5S,6s)-3-(tetrahydro-2H-pyran-4-yl)-3-azabicyclo[3.1.0]hexan-6-yl)-1H-imidazol-4-yl)-3-(trifluoromethoxy)pyridin-2-amine] showed a pKd on human DLK [1] of 7.23. Besides, the negative logarithm of the IC50 (pIC50) on human DLK [2] is 6.08.

`COCCN1C[C@@H]2[C@H](C1)[C@H]2n1cc(-c2cnc(N)c(OC(F)(F)F)c2)nc1C1CC1` [Example 68, 5-(2-cyclopropyl-1-((1R,5S,6s)-3-(2-methoxyethyl)-3-azabicyclo[3.1.0]hexan-6-yl)-1H-imidazol-4-yl)-3-(trifluoromethoxy)pyridin-2-amine] showed a negative-log Kd (pKd) on human DLK [1] of 7.11. The compound also showed a pIC50 at human DLK [2] of 6.13.

Compound `Nc1ncc(-c2cn([C@H]3[C@@H]4CN(CCF)C[C@@H]43)c(C3CC3)n2)cc1OC(F)(F)F` [Example 69, 5-(2-cyclopropyl-1-((1R,5S,6s)-3-(2-fluoroethyl)-3-azabicyclo[3.1.0]hexan-6-yl)-1H-imidazol-4-yl)-3-(trifluoromethoxy)pyridin-2-amine] showed a pKd on human DLK [1] of 7.35. On human DLK [2], this compound showed a pIC50 of 5.61.

The compound `CC(=O)N1C[C@@H]2[C@H](C1)[C@H]2n1cc(-c2cnc(N)c(C(F)(F)F)c2)nc1C1CC1` [Example 72, 1-((1R,5S,6s)-6-(4-(6-amino-5-(trifluoromethyl)pyridin-3-yl)-2-cyclopropyl-1H-imidazol-1-yl)-3-azabicyclo[3.1.0]hexan-3-yl)ethan-1-one] gave a negative logarithm of the Kd (pKd) at human DLK [1] of 7.16. Moreover, at human DLK [2], the pIC50 was 5.57.

`Nc1ncc(-c2cn([C@H]3[C@@H]4CN(C5COC5)C[C@@H]43)c(C3CC3)n2)cc1C(F)(F)F` [Example 73, 5-(2-cyclopropyl-1-((1R,5S,6s)-3-(oxetan-3-yl)-3-azabicyclo[3.1.0]hexan-6-yl)-1H-imidazol-4-yl)-3-(trifluoromethyl)pyridin-2-amine] showed a pKd at human DLK [1] of 7.25. The same compound showed a pIC50 at human DLK [2] of 5.92.

In the case of `Nc1ncc(-c2cn([C@H]3[C@@H]4CN(C5CCOCC5)C[C@@H]43)c(C3CC3)n2)cc1C(F)(F)F` [Example 74, 5-(2-cyclopropyl-1-((1R,5S,6s)-3-(tetrahydro-2H-pyran-4-yl)-3-azabicyclo[3.1.0]hexan-6-yl)-1H-imidazol-4-yl)-3-(trifluoromethyl)pyridin-2-amine], the negative-log Kd (pKd) at human DLK [1] is 7.27. On human DLK [2], this compound had a negative logarithm of the IC50 (pIC50) of 5.87.

In the case of `Nc1ncc(-c2cn([C@H]3[C@@H]4CN(C5CCOCC5)C[C@@H]43)c(CC3CC3)n2)cc1C(F)(F)F` [Example 76, 5-(2-(cyclopropylmethyl)-1-((1R,5S,6s)-3-(tetrahydro-2H-pyran-4-yl)-3-azabicyclo[3.1.0]hexan-6-yl)-1H-imidazol-4-yl)-3-(trifluoromethyl)pyridin-2-amine], at human DLK [1], the pKd was 7.29. Further, the pIC50 against human DLK [2] was 6.12.

As to `Nc1ncc(-c2cn([C@H]3[C@@H]4CN(CCF)C[C@@H]43)c(CC3CC3)n2)cc1C(F)(F)F` [Example 77, 5-(2-(cyclopropylmethyl)-1-((1R,5S,6s)-3-(2-fluoroethyl)-3-azabicyclo[3.1.0]hexan-6-yl)-1H-imidazol-4-yl)-3-(trifluoromethyl)pyridin-2-amine], at human DLK [1], the negative logarithm of the Kd (pKd) is 7.77. Moreover, the negative logarithm of the IC50 (pIC50) at human DLK [2] is 5.83.

`COCCN1C[C@@H]2[C@H](C1)[C@H]2n1cc(-c2cnc(N)c(C(F)(F)F)c2)nc1CC1CC1` [Example 78, 5-(2-(cyclopropylmethyl)-1-((1R,5S,6s)-3-(2-methoxyethyl)-3-azabicyclo[3.1.0]hexan-6-yl)-1H-imidazol-4-yl)-3-(trifluoromethyl)pyridin-2-amine]: on human DLK [1], the pKd was 7.19. The pIC50 against human DLK [2] was 6.11.

Consider `CC(C)c1nc(-c2cnc(N)c(OC(F)(F)F)c2)cn1[C@H]1[C@@H]2CN(C3COC3)C[C@@H]21` [Example 80, 5-(2-isopropyl-1-((1R,5S,6s)-3-(oxetan-3-yl)-3-azabicyclo[3.1.0]hexan-6-yl)-1H-imidazol-4-yl)-3-(trifluoromethoxy)pyridin-2-amine], for which the pKd on human DLK [1] is 7.38. On human DLK [2], this compound showed a pIC50 of 5.78.

`CC(C)c1nc(-c2cnc(N)c(OC(F)(F)F)c2)cn1[C@H]1[C@@H]2CN(C3CCOCC3)C[C@@H]21` [Example 81, 5-(2-isopropyl-1-((1R,5S,6s)-3-(tetrahydro-2H-pyran-4-yl)-3-azabicyclo[3.1.0]hexan-6-yl)-1H-imidazol-4-yl)-3-(trifluoromethoxy)pyridin-2-amine] showed a negative logarithm of the Kd (pKd) at human DLK [1] of 7.00. Further, the pIC50 on human DLK [2] is 5.82.

At human DLK [1], `CC(C)c1nc(-c2cnc(N)c(OC(F)F)c2)cn1[C@H]1[C@@H]2CN(C3COC3)C[C@@H]21` [Example 83, 3-(difluoromethoxy)-5-(2-isopropyl-1-((1R,5S,6s)-3-(oxetan-3-yl)-3-azabicyclo[3.1.0]hexan-6-yl)-1H-imidazol-4-yl)pyridin-2-amine] showed a negative logarithm of the Kd (pKd) of 6.80. Also, at human DLK [2], the pIC50 is 5.45.
